Measured values from PubChem BioAssay (NCI).
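1) Cells in 96-well plates. 2) Compound, 48 h, 5 concentrations. 3) Linear interpolation between surrounding doses. 4) Unreached endpoint = highest concentration. GI50 = concentration required for 50% inhibition of growth. TGI marks complete inhibition of growth.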

What was measured:
Test in all cases: NCI-60 cell line screen, 48 h
[1] = tested on: TK-10 renal
[2] = tested on: HT29 colon
[3] = tested on: NCI-H522 lung
[4] = tested on: A498 renal
[5] = tested on: SNB-19 CNS
[6] = tested on: HOP-92 NSCLC
[7] = tested on: DU-145 prostate
[8] = tested on: LOX IMVI melanoma
[9] = tested on: NCI-H226 lung
[10] = tested on: A549 NSCLC

Row | Compound | GI50 [1] [µM] | TGI [1] [µM] | GI50 [2] [µM] | TGI [2] [µM] | GI50 [3] [µM] | TGI [3] [µM] | GI50 [4] [µM] | TGI [4] [µM] | GI50 [5] [µM] | TGI [5] [µM] | GI50 [6] [µM] | TGI [6] [µM] | GI50 [7] [µM] | TGI [7] [µM] | GI50 [8] [µM] | TGI [8] [µM] | GI50 [9] [µM] | TGI [9] [µM] | GI50 [10] [µM] | TGI [10] [µM]
1 | CC(=O)Nc1ccc(CC[C@H]2CCC/C=C/[C@@H]3C[C@H](O)C[C@H]3[C@H](O)/C=C/C(=O)O2)cc1 | 0.172 | 1.06 | 0.119 | 0.951 | 0.261 | 0.654 | 0.016 | 0.0475 | 0.231 | > 100 | 0.217 | 0.791 | 0.366 | 4.2 | 0.0912 | 0.405 | 0.0667 | 0.295 | 0.309 | > 100
2 | CCN(Cc1ccccc1)c1ccc(/C=C2\COc3ccccc3C2=O)cc1 | > 1000 | > 1000 | 135 | > 1000 | 156 | > 1000 | > 1000 | > 1000 | > 1000 | > 1000 | 553 | > 1000 | > 1000 | > 1000 | 243 | > 1000 | > 1000 | > 1000 | > 1000 | > 1000
3 | Cc1ccc(NC(=O)c2ccoc2)cc1-c1ccc(C(=O)NCC2CC2)cc1 | > 25 | > 25 | > 25 | > 25 | > 15.9 | > 25 | > 11.3 | > 25 | > 25 | > 25 | 8.76 | > 25 | > 25 | > 25 | > 25 | > 25 | > 19.5 | > 25 | > 19.5 | > 25
4 | CC(C)Cn1cnc2c(N)nc3ccccc3c21 | 94.8 | > 100 | 28.8 | > 100 | 78.5 | > 100 | 47.8 | > 100 | > 93.3 | > 100 | 31.1 | > 100 | 47.2 | > 100 | 25.7 | > 100 | 73.6 | > 100 | 39.3 | > 100
5 | CN1CCC2(CC1)C(=O)Nc1cc(NC(=O)c3ccc4c(c3)C[C@@H]3C(C)(C)[C@H](O)[C@H](F)C[C@@]3(C)O4)ccc12 | 21.4 | 76.3 | 2.94 | 36.8 | 10.8 | 33.2 | 0.135 | 1.09 | 1.97 | 22 | 1.97 | 31.1 | 10.6 | 57.6 | 0.55 | 12.5 | 14 | 49.3 | 2.74 | 37.2
6 | Cc1ccc(/C=C/C(=O)c2ccc(F)cc2)s1 | 1.84 | 4.33 | 2.09 | 4.11 | 1.71 | 3.57 | 2.69 | 11.1 | 11.3 | 24.4 | 1.6 | 3.4 | 3.41 | 11.2 | 1.87 | 3.59 | 10.4 | 24 | 4.22 | 17.6
